Measurements published in US8017612B2, “Piperazine compound and use thereof as a HCV polymerase inhibitor” (priority 2006, dated 2011).
Structures can show the parent of a compound that is named as a salt.

Tests used:
[1] = molecular target: T1, HCV polymerase (NS5B) type 1b (Hepatitis C virus genotype 1b, UniProt P26663); assay: Assay of enzyme (HCV polymerase) inhibitory activity, type 1b enzyme; assay type: biochemical, HCV BK strain (type 1b)
T1 construct: a region encoding NS5B (J Virol 1991 March, 65(3), 1105-13, 544 amino acids after deletion of 47 amino acids on the C-terminal); 6xHis (C); made in house; host or cells: Escherichia coli
In short: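 Polymerase activity was followed as radiolabelled UTP incorporation by E. coli-expressed, His-tagged NS5B of HCV type 1b lacking its last 47 residues. Conditions: 2 μM UTP, 50 μM other NTPs, Mg2+ buffer at pH 7.5, 25 °C for 60 min. Inhibition relative to compound-free reactions gave IC50.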

[2] = molecular target: T2, HCV polymerase (NS5B) type 1a (Hepatitis C virus genotype 1a, UniProt P26664); assay: Assay of enzyme (HCV polymerase) inhibitory activity, type 1a enzyme; assay type: biochemical, HCV type 1a (cloned from the blood of patients)
T2 construct: made in house; host or cells: Escherichia coli (by the 'similar method' of the 1b enzyme)
In short: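 IC50 values derive from radioactivity of newly synthesized RNA with versus without test compound. The enzyme was C-terminally truncated type 1a NS5B, 1.5 μg/ml, run 60 min at 25° C with 3H-UTP-labelled nucleotides.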

[3] = HCV polymerase inhibitory activity IC50, 1b, type 1b enzyme
[4] = HCV polymerase inhibitory activity IC50, 1a, type 1a enzyme
[5] = HCV polymerase inhibitory activity (IC50), 1b, type 1b enzyme 0.5 μg/ml, 25° C., 60 min
[6] = HCV polymerase inhibitory activity (IC50), 1a, type 1a enzyme 1.5 μg/ml, 25° C., 60 min

| SMILES | IC50 [1, 3] | IC50 [2, 4] | IC50 [1, 5] | IC50 [2, 6] |
| --- | --- | --- | --- | --- |
| O=C(NCc1ccc(OC(F)(F)F)cc1)[C@H]1CN(c2cnc3cnccc3n2)CCN1S(=O)(=O)c1ccc(Cl)cc1 [Example 752, (R)-1-(4-chloro-benzenesulfonyl)-4-pyrido[3,4-b]pyrazin-2-yl-piperazine-2-carboxylic acid 4-trifluoromethoxy-benzylamide] | < 100 nM | < 100 nM |  |  |
| O=C(NCc1ccc(OC(F)(F)F)cc1)[C@H]1CN(c2nc3c(CO)nncc3s2)CCN1S(=O)(=O)c1ccc(OC(F)(F)F)cc1 [Example 940, (R)-4-(4-hydroxymethyl-thiazolo[4,5-d]pyridazin-2-yl)-1-(4-trifluoromethoxy-benzenesulfonyl)-piperazine-2-carboxylic acid 4-trifluoromethoxy-benzylamide] | < 100 nM | < 100 nM |  |  |
| CCC(F)(F)c1ccc(CNC(=O)[C@H]2CN(c3cnc4cnccc4n3)CCN2S(=O)(=O)c2ccc(-c3ccccc3)cc2)cc1 [Example 727, (R)-1-(biphenyl-4-sulfonyl)-4-pyrido[3,4-b]pyrazin-2-yl-piperazine-2-carboxylic acid 4-(1,1-difluoro-propyl)-benzylamide] | < 100 nM | < 100 nM |  |  |
| COc1ccc(S(=O)(=O)N2CCN(C(C)=O)C[C@@H]2C(=O)NCc2ccc(C(C)C)cc2)cc1CCC(=O)O [Example 222, 3-{5-[(R)-4-acetyl-2-(4-isopropyl-benzylcarbamoyl)-piperazine-1-sulfonyl]-2-methoxy-phenyl}-propionic acid] |  |  | 100 to 1000 nM | 100 to 1000 nM |
| COC(=O)Cc1cc(S(=O)(=O)N2CCN(C(C)=O)C[C@@H]2C(=O)NCc2ccc(C(C)C)cc2)ccc1OC [Example 217, {5-[(R)-4-acetyl-2-(4-isopropyl-benzylcarbamoyl)-piperazine-1-sulfonyl]-2-methoxy-phenyl}-acetic acid methyl ester] |  |  | > 1000 nM | > 1000 nM |
| COc1ccc(NC(=O)N2CCN(S(=O)(=O)c3ccc(C(F)(F)F)cc3)[C@@H](C(=O)NCc3ccc(C(C)C)cc3)C2)cc1 [Example 277, (R)-4-(4-trifluoromethyl-benzenesulfonyl)-piperazine-1,3-dicarboxylic acid 3-(4-isopropyl-benzylamide) 1-[(4-methoxy-phenyl)-amide]] |  |  | 100 to 1000 nM | > 1000 nM |
| COc1ccc(CNC(=O)C2CN(C(C)=O)CCN2S(=O)(=O)c2ccc(C(C)C)cc2)cc1 (stereo not drawn) [Example 52, 4-acetyl-1-(4-isopropyl-benzenesulfonyl)-piperazine-2-carboxylic acid 4-methoxy-benzylamide] |  |  | > 1000 nM | > 1000 nM |
| O=C(NCc1ccc(OC(F)F)c(F)c1)[C@H]1CN(c2nc3nc(C4CC4)ncc3s2)CCN1S(=O)(=O)c1ccc(OC(F)(F)F)cc1 [Example 1073, (R)-4-(5-cyclopropyl-thiazolo[4,5-d]pyrimidin-2-yl)-1-(4-trifluoromethoxy-benzenesulfonyl)-piperazine-2-carboxylic acid 4-difluoromethoxy-3-fluoro-benzylamide] | < 100 nM | < 100 nM |  |  |
| CCC(F)(F)c1ccc(CNC(=O)[C@H]2CN(C(=O)Nc3cncs3)CCN2S(=O)(=O)c2ccc(OC(F)(F)F)cc2)cc1 [Example 607, (R)-4-(4-trifluoromethoxy-benzenesulfonyl)-piperazine-1,3-dicarboxylic acid 3-[4-(1,1-difluoro-propyl)-benzylamide] 1-thiazol-5-ylamide] |  |  | 100 to 1000 nM | 100 to 1000 nM |
| CC(C)c1ncc2sc(N3CCN(S(=O)(=O)c4ccc(OC(F)(F)F)cc4)[C@@H](C(=O)NCc4ccc(OC(F)(F)F)cc4)C3)nc2n1 [Example 984, (R)-4-(5-isopropyl-thiazolo[4,5-d]pyrimidin-2-yl)-1-(4-trifluoromethoxy-benzenesulfonyl)-piperazine-2-carboxylic acid 4-trifluoromethoxy-benzylamide] | < 100 nM | < 100 nM |  |  |
| COC(=O)CN1CCN(S(=O)(=O)c2ccc(I)cc2)C(C(=O)NCc2ccc(N(C)C)cc2)C1 (stereo not drawn) [Example 94, [3-(4-dimethylamino-benzylcarbamoyl)-4-(4-iodo-benzenesulfonyl)-piperazin-1-yl]-acetic acid methyl ester] |  |  | > 1000 nM | > 1000 nM |
| CCCc1ccc(S(=O)(=O)N2CCN(c3nc(C)c(C(=O)O)s3)C[C@@H]2C(=O)NCc2ccc(C(C)C)cc2)cc1 [Example 299, 2-[(R)-3-(4-isopropyl-benzylcarbamoyl)-4-(4-propyl-benzenesulfonyl)-piperazin-1-yl]-4-methyl-thiazole-5-carboxylic acid] |  |  | < 100 nM | < 100 nM |
| CC(=O)N1CCN(S(=O)(=O)c2ccc(C(C)C)cc2)C(C(=O)NCc2ccc(Cl)cc2)C1 (stereo not drawn) [Example 35, 4-acetyl-1-(4-isopropyl-benzenesulfonyl)-piperazine-2-carboxylic acid 4-chloro-benzylamide] |  |  | > 1000 nM | > 1000 nM |
| CC(C)c1ccc(CNC(=O)[C@H]2CN(c3cnn(CC(=O)O)c3)CCN2S(=O)(=O)c2ccc(OC(F)(F)F)cc2)cc1 [Example 493, {4-[(R)-3-(4-isopropyl-benzylcarbamoyl)-4-(4-trifluoromethoxy-benzenesulfonyl)-piperazin-1-yl]-pyrazol-1-yl}-acetic acid] |  |  | 100 to 1000 nM | 100 to 1000 nM |
| CCOc1ccc(CNC(=O)[C@H]2CN(c3cnc4cncnc4n3)CCN2S(=O)(=O)c2ccc(OC(F)(F)F)cc2)cc1 [Example 651, (R)-4-pteridin-7-yl-1-(4-trifluoromethoxy-benzenesulfonyl)-piperazine-2-carboxylic acid 4-ethoxy-benzylamide] |  |  | < 100 nM | < 100 nM |
| COC(=O)c1cnc(N2CCN(S(=O)(=O)c3ccc(C(F)(F)F)cc3)[C@@H](C(=O)NCc3ccc(C(C)C)cc3)C2)c(C)n1 [Example 431, (R)-3-(4-isopropyl-benzylcarbamoyl)-3′-methyl-4-(4-trifluoromethyl-benzenesulfonyl)-3,4,5,6-tetrahydro-2H-[1,2′]bipyrazinyl-5′-carboxylic acid methyl ester] |  |  | 100 to 1000 nM | 100 to 1000 nM |
| CC(C)c1ccc(CNC(=O)[C@H]2CN(C(=O)CNCC(=O)O)CCN2S(=O)(=O)c2ccc(C(F)(F)F)cc2)cc1 [Example 384, {2-[(R)-3-(4-isopropyl-benzylcarbamoyl)-4-(4-trifluoromethyl-benzenesulfonyl)-piperazin-1-yl]-2-oxo-ethylamino}-acetic acid hydrochloride] |  |  | 100 to 1000 nM | 100 to 1000 nM |
| CCOC(=O)c1ccc2ncc(N3CCN(S(=O)(=O)c4ccc(OC(F)(F)F)cc4)[C@@H](C(=O)NCc4ccc(C(F)(F)CC)cc4)C3)nc2c1 [Example 710, 3-[(R)-3-[4-(1,1-difluoro-propyl)-benzylcarbamoyl]-4-(4-trifluoromethoxy-benzenesulfonyl)-piperazin-1-yl]-quinoxaline-6-carboxylic acid ethyl ester] | 100 to 1000 nM | 100 to 1000 nM |  |  |
| CC(=O)N1CCN(S(=O)(=O)c2ccc(OC(F)(F)F)cc2)[C@@H](C(=O)NCc2ccc(O)cc2)C1 [Example 613, (R)-4-acetyl-1-(4-trifluoromethoxy-benzenesulfonyl)-piperazine-2-carboxylic acid 4-hydroxy-benzylamide] |  |  | > 1000 nM | > 1000 nM |
| CC(=O)N1CCN(S(=O)(=O)c2ccc(C(C)C)cc2)[C@@H](C(=O)NCCc2ccccn2)C1 [Example 396, (R)-4-acetyl-1-(4-isopropyl-benzenesulfonyl)-piperazine-2-carboxylic acid (2-pyridin-2-yl-ethyl)-amide] |  |  | > 1000 nM | > 1000 nM |
| CC(=O)N1CCN(S(=O)(=O)c2ccc(CC3CC3)cc2)[C@@H](C(=O)NCc2ccc(C(C)C)cc2)C1 [Example 428, (R)-4-acetyl-1-(4-cyclopropylmethyl-benzenesulfonyl)-piperazine-2-carboxylic acid 4-isopropyl-benzylamide] |  |  | < 100 nM | < 100 nM |
| Cc1ncc2sc(N3CCN(S(=O)(=O)c4ccc(C(F)(F)F)cc4)[C@@H](C(=O)NCc4ccc(OC(F)F)cc4)C3)nc2n1 [Example 970, (R)-4-(5-methyl-thiazolo[4,5-d]pyrimidin-2-yl)-1-(4-trifluoromethyl-benzenesulfonyl)-piperazine-2-carboxylic acid 4-difluoromethoxy-benzylamide] | < 100 nM | < 100 nM |  |  |
| CCCc1ccc(S(=O)(=O)N2CCN(C(C)=O)CC2C(=O)NCc2ccc(C(F)(F)F)cc2)cc1 (stereo not drawn) [Example 72, 4-acetyl-1-(4-propyl-benzenesulfonyl)-piperazine-2-carboxylic acid 4-trifluoromethyl-benzylamide] |  |  | 100 to 1000 nM | > 1000 nM |
| CC(=O)N1CCN(S(=O)(=O)c2ccc(C(C)C)cc2)C(C(=O)NCCc2ccccc2)C1 (stereo not drawn) [Example 118, 4-acetyl-1-(4-isopropyl-benzenesulfonyl)-piperazine-2-carboxylic acid phenethyl-amide] |  |  | > 1000 nM | > 1000 nM |
